Laboratory results as given in PubChem BioAssay (NCI).
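Exposure lasted 48 hours, with cells grown in 96-well plates and compounds tested at five concentrations. GI50 marks 50% less growth. TGI marks complete inhibition of growth.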

Key:
Test in all cases: inhibition of tumour cell growth, NCI panel, 48 h
786-0 renal = system: 786-0 renal
A498 renal = system: A498 renal
A549 NSCLC = system: A549 NSCLC
ACHN renal = system: ACHN renal
BT-549 breast = system: BT-549 breast
CAKI-1 renal = system: CAKI-1 renal
COLO 205 colon = system: COLO 205 colon
DU-145 prostate = system: DU-145 prostate
EKVX NSCLC = system: EKVX NSCLC
HCC-2998 colon = system: HCC-2998 colon
HCT-116 colon = system: HCT-116 colon
HCT-15 colon = system: HCT-15 colon
HL-60(TB) leukemia = system: HL-60(TB) leukemia
HOP-62 NSCLC = system: HOP-62 NSCLC
HT29 colon = system: HT29 colon
IGROV1 ovarian = system: IGROV1 ovarian
K-562 leukemia = system: K-562 leukemia
KM12 colon = system: KM12 colon
LOX IMVI melanoma = system: LOX IMVI melanoma
M14 melanoma = system: M14 melanoma
MALME-3M melanoma = system: MALME-3M melanoma
MCF7 breast = system: MCF7 breast
MDA-MB-231 breast = system: MDA-MB-231 breast
MDA-MB-435 = system: MDA-MB-435
MDA-N = system: MDA-N
MOLT-4 leukemia = system: MOLT-4 leukemia
NCI-H226 lung = system: NCI-H226 lung
NCI-H23 lung = system: NCI-H23 lung
NCI-H522 lung = system: NCI-H522 lung
NCI/ADR-RES ovarian = system: NCI/ADR-RES ovarian
OVCAR-3 ovarian = system: OVCAR-3 ovarian
OVCAR-4 ovarian = system: OVCAR-4 ovarian
OVCAR-5 ovarian = system: OVCAR-5 ovarian
OVCAR-8 ovarian = system: OVCAR-8 ovarian
PC-3 prostate = system: PC-3 prostate
RPMI-8226 leukemia = system: RPMI-8226 leukemia
RXF 393 renal = system: RXF 393 renal
SF-268 CNS = system: SF-268 CNS
SF-295 CNS = system: SF-295 CNS
SK-MEL-2 melanoma = system: SK-MEL-2 melanoma
SK-MEL-28 melanoma = system: SK-MEL-28 melanoma
SK-MEL-5 melanoma = system: SK-MEL-5 melanoma
SK-OV-3 ovarian = system: SK-OV-3 ovarian
SN12C renal = system: SN12C renal
SNB-19 CNS = system: SNB-19 CNS
SR leukemia = system: SR leukemia
SW-620 colon = system: SW-620 colon
T-47D breast = system: T-47D breast
TK-10 renal = system: TK-10 renal
U251 CNS = system: U251 CNS
UACC-257 melanoma = system: UACC-257 melanoma
UACC-62 melanoma = system: UACC-62 melanoma
UO-31 renal = system: UO-31 renal
CCRF-CEM leukemia = system: CCRF-CEM leukemia
HOP-92 NSCLC = system: HOP-92 NSCLC
SF-539 CNS = system: SF-539 CNS
SNB-75 CNS = system: SNB-75 CNS
HS 578T breast = system: HS 578T breast
NCI-H460 lung = system: NCI-H460 lung

## NCCCNCCCNCCCN
786-0 renal
  TGI: > 100 µM
A498 renal
  TGI: > 100 µM
A549 NSCLC
  TGI: > 100 µM
ACHN renal
  TGI: > 100 µM
BT-549 breast
  TGI: > 100 µM
CAKI-1 renal
  TGI: > 100 µM
COLO 205 colon
  TGI: > 100 µM
DU-145 prostate
  TGI: > 100 µM
EKVX NSCLC
  TGI: > 100 µM
HCC-2998 colon
  TGI: > 100 µM
HCT-116 colon
  TGI: > 100 µM
HCT-15 colon
  TGI: > 100 µM
HL-60(TB) leukemia
  TGI: > 100 µM
HOP-62 NSCLC
  TGI: > 100 µM
HT29 colon
  TGI: > 100 µM
IGROV1 ovarian
  TGI: > 100 µM
K-562 leukemia
  TGI: 72.9 µM
KM12 colon
  TGI: > 100 µM
LOX IMVI melanoma
  TGI: > 100 µM
M14 melanoma
  TGI: > 100 µM
MALME-3M melanoma
  TGI: > 100 µM
MCF7 breast
  TGI: > 100 µM
MDA-MB-231 breast
  TGI: > 100 µM
MDA-MB-435
  TGI: > 100 µM
MDA-N
  TGI: > 100 µM
MOLT-4 leukemia
  TGI: 42.4 µM
NCI-H226 lung
  TGI: > 100 µM
NCI-H23 lung
  TGI: > 100 µM
NCI-H522 lung
  TGI: > 100 µM
NCI/ADR-RES ovarian
  TGI: > 100 µM
OVCAR-3 ovarian
  TGI: > 100 µM
OVCAR-4 ovarian
  TGI: > 100 µM
OVCAR-5 ovarian
  TGI: > 100 µM
OVCAR-8 ovarian
  TGI: > 100 µM
PC-3 prostate
  TGI: > 100 µM
RPMI-8226 leukemia
  TGI: 41.1 µM
RXF 393 renal
  TGI: > 100 µM
SF-268 CNS
  TGI: 8.96 µM
SF-295 CNS
  TGI: > 100 µM
SK-MEL-2 melanoma
  TGI: > 100 µM
SK-MEL-28 melanoma
  TGI: > 100 µM
SK-MEL-5 melanoma
  TGI: > 100 µM
SK-OV-3 ovarian
  TGI: > 100 µM
SN12C renal
  TGI: > 100 µM
SNB-19 CNS
  TGI: > 100 µM
SR leukemia
  TGI: 44.7 µM
SW-620 colon
  TGI: > 100 µM
T-47D breast
  TGI: > 100 µM
TK-10 renal
  TGI: > 100 µM
U251 CNS
  TGI: > 100 µM
UACC-257 melanoma
  TGI: > 100 µM
UACC-62 melanoma
  TGI: > 100 µM
UO-31 renal
  TGI: > 100 µM

## CCc1nnc(CC)n1NCCCC(=O)O
786-0 renal
  TGI: > 100 µM
A549 NSCLC
  TGI: > 100 µM
ACHN renal
  TGI: > 100 µM
BT-549 breast
  TGI: > 100 µM
CCRF-CEM leukemia
  TGI: > 100 µM
COLO 205 colon
  TGI: > 100 µM
DU-145 prostate
  TGI: > 100 µM
EKVX NSCLC
  TGI: > 100 µM
HCC-2998 colon
  TGI: > 100 µM
HCT-116 colon
  TGI: > 100 µM
HCT-15 colon
  TGI: > 100 µM
HOP-62 NSCLC
  TGI: > 100 µM
HOP-92 NSCLC
  TGI: > 100 µM
HT29 colon
  TGI: > 100 µM
IGROV1 ovarian
  TGI: > 100 µM
K-562 leukemia
  TGI: > 100 µM
KM12 colon
  TGI: > 100 µM
LOX IMVI melanoma
  TGI: > 100 µM
M14 melanoma
  TGI: > 100 µM
MCF7 breast
  TGI: > 100 µM
MDA-MB-231 breast
  TGI: > 100 µM
MDA-MB-435
  TGI: > 100 µM
MDA-N
  TGI: > 100 µM
MOLT-4 leukemia
  TGI: > 100 µM
NCI-H23 lung
  TGI: > 100 µM
NCI-H522 lung
  TGI: > 100 µM
NCI/ADR-RES ovarian
  TGI: > 100 µM
OVCAR-3 ovarian
  TGI: > 100 µM
OVCAR-4 ovarian
  TGI: > 100 µM
OVCAR-5 ovarian
  TGI: > 100 µM
OVCAR-8 ovarian
  TGI: > 100 µM
PC-3 prostate
  TGI: > 100 µM
RPMI-8226 leukemia
  TGI: > 100 µM
RXF 393 renal
  TGI: > 100 µM
SF-268 CNS
  TGI: > 100 µM
SF-295 CNS
  TGI: > 100 µM
SF-539 CNS
  TGI: > 100 µM
SK-MEL-2 melanoma
  TGI: > 100 µM
SK-MEL-28 melanoma
  TGI: > 100 µM
SK-MEL-5 melanoma
  TGI: > 100 µM
SK-OV-3 ovarian
  TGI: > 100 µM
SN12C renal
  TGI: > 100 µM
SNB-19 CNS
  TGI: > 100 µM
SNB-75 CNS
  TGI: > 100 µM
SR leukemia
  TGI: > 100 µM
SW-620 colon
  TGI: > 100 µM
TK-10 renal
  TGI: > 100 µM
U251 CNS
  TGI: > 100 µM
UACC-257 melanoma
  TGI: > 100 µM
UACC-62 melanoma
  TGI: > 100 µM
UO-31 renal
  TGI: > 100 µM

## CCc1ccc(NC(=O)Nc2c[nH]c3ccccc23)cc1
786-0 renal
  GI50: 8.55 µM
  TGI: > 81.9 µM
A498 renal
  GI50: > 46 µM
  TGI: > 72.8 µM
A549 NSCLC
  GI50: 6.26 µM
  TGI: > 48 µM
ACHN renal
  GI50: 23.2 µM
  TGI: > 84.3 µM
BT-549 breast
  GI50: 1.68 µM
  TGI: > 23.8 µM
CAKI-1 renal
  GI50: 3.59 µM
  TGI: > 42 µM
CCRF-CEM leukemia
  GI50: 0.358 µM
  TGI: > 100 µM
COLO 205 colon
  GI50: > 38.9 µM
  TGI: > 54 µM
DU-145 prostate
  GI50: > 34 µM
  TGI: > 51.5 µM
EKVX NSCLC
  GI50: 9.2 µM
  TGI: > 55 µM
HCC-2998 colon
  GI50: 18 µM
  TGI: > 50.8 µM
HCT-116 colon
  GI50: 32.9 µM
  TGI: > 56 µM
HCT-15 colon
  GI50: 17.8 µM
  TGI: > 55.2 µM
HL-60(TB) leukemia
  GI50: 0.811 µM
  TGI: 5.48 µM
HOP-62 NSCLC
  GI50: 16.7 µM
  TGI: > 58.8 µM
HOP-92 NSCLC
  GI50: 12 µM
  TGI: > 53.1 µM
HS 578T breast
  GI50: 10.4 µM
  TGI: > 67.8 µM
HT29 colon
  GI50: > 43.5 µM
  TGI: > 61.2 µM
IGROV1 ovarian
  GI50: 5.72 µM
  TGI: > 45.5 µM
K-562 leukemia
  GI50: 6.89 µM
  TGI: > 100 µM
KM12 colon
  GI50: 5.63 µM
  TGI: > 43.4 µM
LOX IMVI melanoma
  GI50: 25.8 µM
  TGI: > 50.2 µM
M14 melanoma
  GI50: > 39.8 µM
  TGI: > 57 µM
MALME-3M melanoma
  GI50: 8 µM
  TGI: > 49.4 µM
MCF7 breast
  GI50: 29.3 µM
  TGI: > 65.5 µM
MDA-MB-231 breast
  GI50: 3.2 µM
  TGI: > 36.9 µM
MDA-MB-435
  GI50: 22.6 µM
  TGI: > 49.5 µM
MOLT-4 leukemia
  GI50: 1.85 µM
  TGI: > 100 µM
NCI-H226 lung
  GI50: 7.29 µM
  TGI: > 52.4 µM
NCI-H23 lung
  GI50: 36.3 µM
  TGI: > 54.1 µM
NCI-H460 lung
  GI50: 12.7 µM
  TGI: > 49.6 µM
NCI-H522 lung
  GI50: 1.18 µM
  TGI: 2.67 µM
NCI/ADR-RES ovarian
  GI50: 14.2 µM
  TGI: > 62.8 µM
OVCAR-3 ovarian
  GI50: 2.47 µM
  TGI: > 32.2 µM
OVCAR-4 ovarian
  GI50: 10.1 µM
  TGI: > 54.7 µM
OVCAR-5 ovarian
  GI50: 34 µM
  TGI: > 57.9 µM
OVCAR-8 ovarian
  GI50: 13.9 µM
  TGI: > 47.5 µM
PC-3 prostate
  GI50: 5.13 µM
  TGI: > 63.7 µM
RPMI-8226 leukemia
  GI50: 0.567 µM
  TGI: > 100 µM
RXF 393 renal
  GI50: 11.6 µM
  TGI: > 59.4 µM
SF-268 CNS
  GI50: 4.24 µM
  TGI: > 43.4 µM
SF-295 CNS
  GI50: 23.8 µM
  TGI: > 56 µM
SF-539 CNS
  GI50: 3.09 µM
  TGI: > 40.6 µM
SK-MEL-2 melanoma
  GI50: 35.5 µM
  TGI: > 52.1 µM
SK-MEL-28 melanoma
  GI50: > 39 µM
  TGI: > 56.6 µM
SK-MEL-5 melanoma
  GI50: 32.7 µM
  TGI: > 54.1 µM
SK-OV-3 ovarian
  GI50: 19.7 µM
  TGI: > 73.2 µM
SN12C renal
  GI50: 2.22 µM
  TGI: > 36.2 µM
SNB-19 CNS
  GI50: 22.7 µM
  TGI: > 58.3 µM
SNB-75 CNS
  GI50: 1.01 µM
  TGI: > 26.5 µM
SR leukemia
  GI50: 2.2 µM
  TGI: > 100 µM
SW-620 colon
  GI50: > 38.3 µM
  TGI: > 55 µM
T-47D breast
  GI50: 16.3 µM
  TGI: > 82.2 µM
TK-10 renal
  GI50: > 46.1 µM
  TGI: > 70.9 µM
U251 CNS
  GI50: 31.5 µM
  TGI: > 51.7 µM
UACC-257 melanoma
  GI50: > 38.6 µM
  TGI: > 59.9 µM
UACC-62 melanoma
  GI50: 31.5 µM
  TGI: > 51.7 µM
UO-31 renal
  GI50: 1.62 µM
  TGI: > 58 µM
